# From ChEMBL document CHEMBL3351915 (Bioorg Med Chem Lett, 2015)
# Assays:
# [1] = biological target: ATP-dependent translocase ABCB1 (Homo sapiens, UniProt P08183); experiment: Inhibition of human recombinant MDR1 in cell membrane fraction preincubated for 5 mins measured after 40 mins by Pgp-Glo luciferase assay; assay type: cell-based
# [2] = Oral bioavailability in human; conditions: in vivo
# [3] = Absolute bioavailability in dog; assay type: ADME, organism-based, Canis lupus familiaris; conditions: in vivo
# MDR1 (P-gp, ABCB1) [4] = biological target: T1, MDR1 (P-gp, ABCB1) (Homo sapiens, UniProt P08183); experiment: Inhibition of human recombinant MDR1 in cell membrane fraction preincubated for 5 mins at 10 uM measured after 40 mins by Pgp-Glo luciferase assay; assay type: cell-based
# [5] = Fraction unbound in Sprague-Dawley rat at 5 mg/kg, po; conditions: in vivo
# MDR1 (P-gp, ABCB1) [6] = biological target: T1, MDR1 (P-gp, ABCB1); experiment: Inhibition of human recombinant MDR1 in cell membrane fraction preincubated for 5 mins at 0.01 uM measured after 40 mins by Pgp-Glo luciferase assay; assay type: cell-based
# MDR1 (P-gp, ABCB1) [7] = biological target: T1, MDR1 (P-gp, ABCB1); experiment: Inhibition of human recombinant MDR1 in cell membrane fraction preincubated for 5 mins at 0.1 uM measured after 40 mins by Pgp-Glo luciferase assay; assay type: cell-based
# MDR1 (P-gp, ABCB1) [8] = biological target: T1, MDR1 (P-gp, ABCB1); experiment: Inhibition of human recombinant MDR1 in cell membrane fraction preincubated for 5 mins at 1 uM measured after 40 mins by Pgp-Glo luciferase assay; assay type: cell-based
# Plasma = experiment: Total steady state plasma concentration in Sprague-Dawley rat at 5 mg/kg, po; assay type: ADME, organism-based; parameters: dose 5 mg/kg, route oral; conditions: in vivo
# MDR1 (P-gp, ABCB1) [9] = biological target: T1, MDR1 (P-gp, ABCB1); experiment: Inhibition of human recombinant MDR1 in cell membrane fraction preincubated for 5 mins at 100 uM measured after 40 mins by Pgp-Glo luciferase assay; assay type: cell-based
# CYP3A4 [10] = biological target: T2, CYP3A4 (Homo sapiens, UniProt P08684); experiment: Inhibition of human recombinant CYP3A4 expressed in insect cell microsomes preincubated for 10 mins at 0.1 uM by fluorescence assay; conditions: recombinant enzyme
# CYP3A4 [11] = biological target: T2, CYP3A4; experiment: Inhibition of human recombinant CYP3A4 expressed in insect cell microsomes preincubated for 10 mins at 1 uM by fluorescence assay; conditions: recombinant enzyme
# CYP3A4 [12] = biological target: T2, CYP3A4; experiment: Inhibition of human recombinant CYP3A4 expressed in insect cell microsomes preincubated for 10 mins at 10 uM by fluorescence assay; conditions: recombinant enzyme
# T1 sequence (P08183 whole entry): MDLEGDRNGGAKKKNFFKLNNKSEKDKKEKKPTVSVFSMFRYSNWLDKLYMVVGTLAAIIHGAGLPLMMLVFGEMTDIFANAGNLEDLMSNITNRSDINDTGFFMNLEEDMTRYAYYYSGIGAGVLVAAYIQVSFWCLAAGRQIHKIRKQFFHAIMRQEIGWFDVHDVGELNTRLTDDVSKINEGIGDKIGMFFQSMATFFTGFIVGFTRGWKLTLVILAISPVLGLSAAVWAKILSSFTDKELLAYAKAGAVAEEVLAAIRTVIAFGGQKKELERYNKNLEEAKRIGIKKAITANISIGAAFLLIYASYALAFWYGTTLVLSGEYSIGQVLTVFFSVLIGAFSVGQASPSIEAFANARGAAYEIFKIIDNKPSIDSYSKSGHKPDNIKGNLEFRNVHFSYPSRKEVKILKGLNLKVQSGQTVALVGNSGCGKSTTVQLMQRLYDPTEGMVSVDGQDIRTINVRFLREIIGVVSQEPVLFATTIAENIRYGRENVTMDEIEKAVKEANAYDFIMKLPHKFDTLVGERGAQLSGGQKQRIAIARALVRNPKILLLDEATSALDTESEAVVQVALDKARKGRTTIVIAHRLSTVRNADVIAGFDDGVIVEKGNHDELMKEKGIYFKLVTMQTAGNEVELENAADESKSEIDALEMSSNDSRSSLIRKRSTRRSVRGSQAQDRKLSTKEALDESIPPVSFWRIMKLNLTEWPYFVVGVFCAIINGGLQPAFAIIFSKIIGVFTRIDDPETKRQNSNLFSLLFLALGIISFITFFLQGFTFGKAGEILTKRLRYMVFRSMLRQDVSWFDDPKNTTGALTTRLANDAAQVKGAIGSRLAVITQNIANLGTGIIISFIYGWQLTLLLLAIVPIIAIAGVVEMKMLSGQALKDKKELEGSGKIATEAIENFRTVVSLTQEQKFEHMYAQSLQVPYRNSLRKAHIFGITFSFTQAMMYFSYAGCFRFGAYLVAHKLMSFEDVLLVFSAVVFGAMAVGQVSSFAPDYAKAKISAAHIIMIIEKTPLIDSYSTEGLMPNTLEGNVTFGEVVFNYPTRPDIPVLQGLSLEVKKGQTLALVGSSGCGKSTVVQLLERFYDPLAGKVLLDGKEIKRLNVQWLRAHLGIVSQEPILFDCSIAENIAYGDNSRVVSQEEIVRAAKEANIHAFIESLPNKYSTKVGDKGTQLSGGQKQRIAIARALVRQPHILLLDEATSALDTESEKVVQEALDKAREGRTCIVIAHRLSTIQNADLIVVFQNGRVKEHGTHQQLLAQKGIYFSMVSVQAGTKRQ
# T2 sequence (P08684 whole entry): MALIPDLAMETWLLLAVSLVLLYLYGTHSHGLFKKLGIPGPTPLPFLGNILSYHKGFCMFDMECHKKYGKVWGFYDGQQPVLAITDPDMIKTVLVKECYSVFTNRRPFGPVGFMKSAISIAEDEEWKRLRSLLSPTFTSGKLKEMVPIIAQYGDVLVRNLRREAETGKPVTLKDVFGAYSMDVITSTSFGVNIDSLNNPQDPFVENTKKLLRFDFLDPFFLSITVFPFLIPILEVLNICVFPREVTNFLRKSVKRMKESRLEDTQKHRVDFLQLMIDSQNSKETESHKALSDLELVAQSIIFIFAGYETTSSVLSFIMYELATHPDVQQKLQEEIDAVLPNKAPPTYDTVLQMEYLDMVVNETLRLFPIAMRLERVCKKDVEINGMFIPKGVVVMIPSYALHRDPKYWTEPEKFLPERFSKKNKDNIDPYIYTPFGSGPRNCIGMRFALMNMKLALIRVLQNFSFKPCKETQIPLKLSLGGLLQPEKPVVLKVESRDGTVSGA
# Sequence of ATP-dependent translocase ABCB1 (P08183 whole entry): as the sequence (P08183 whole entry) above
SMILES,IC50 [1],bioavailability [2],bioavailability [3],"inhibition at 40 min, 10 µM (MDR1 (P-gp, ABCB1) [4])",fraction unbound [5],"inhibition at 40 min, 0.01 µM (MDR1 (P-gp, ABCB1) [6])","inhibition at 40 min, 0.1 µM (MDR1 (P-gp, ABCB1) [7])","inhibition at 40 min, 1 µM (MDR1 (P-gp, ABCB1) [8])",concentration (Plasma),"inhibition at 40 min, 100 µM (MDR1 (P-gp, ABCB1) [9])",inhibition at 0.1 µM (CYP3A4 [10]),inhibition at 1 µM (CYP3A4 [11]),inhibition at 10 µM (CYP3A4 [12])
COc1cc2c(cc1OC)C(=O)C(CC1CCN(Cc3ccccc3)CC1)C2 (stereo not drawn) [DONEPEZIL],34.9 µM,92%,50%,23.5%,0.04,< 15%,< 15%,17.8%,60 nM,76%,,,
CC(=O)N1CCN(c2ccc(OCC3COC(Cn4ccnc4)(c4ccc(Cl)cc4Cl)O3)cc2)CC1 (stereo not drawn) [KETOCONAZOLE],,,,,,,,,,,33.9%,87.2%,92.3%
